Source: patent EP0326329B1, “Quinazoline derivatives useful as insecticides” (Dow AgroSciences LLC, priority 1988, dated 1989)
Read-outs that look alike come from different tables or passages of the source.

How the values were obtained:
Type in all cases: in vivo
[1] = tested on: Pseudoperonospora cubensis (downy mildew); assay: Greenhouse Test 1, foliar spray fungicide screen (DOWN MDEW), host squash; conditions: disease control rating, 400 ppm (+++ at 100 ppm)
[2] = tested on: melon aphids (Aphis gossypii Glover); assay: Mite/insect screen, sprayed squash cotyledons (MA); conditions: percent mortality; for mortality at 200 ppm / mortality at 400 ppm: Aphis gossypii, read-out: MA RESULTS %
Summary of the method: (§1)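 Water-diluted formulations of each compound (acetone/alcohol 50:50 with 23 g/L and 13 g/L emulsifier blends) are sprayed over both leaf faces to runoff. After a standard exposure period, percent kill and phytotoxicity are recorded.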

[3] = tested on: Southern corn rootworm (Diabrotica undecimpuctata howardi Barber); assay: Mite/insect screen, soil treatment (CRW); conditions: percent mortality, soil treatment; for mortality at 12 ppm / mortality at 24 ppm: Diabrotica, read-out: CRW RESULTS %
Summary of the method: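 Compounds dissolved in acetone/alcohol (50:50) with Toximul R/S emulsifiers, diluted with water. Soil (15 g, with presoaked corn seed) treated with 1 mL test solution, dried 6–12 h, then five 2–3 instar larvae added; held at 23°C. Percent mortality and phytotoxicity scored after standard exposure periods.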

[4] = tested on: Botrytis cinerea (gray mold); assay: Greenhouse Test 1, foliar spray fungicide screen (GRAY MOLD), host grape berries; conditions: disease control rating, 400 ppm (+++ at 100 ppm)
[5] = tested on: Twospotted spider mites (Tetranychus urticae Koch); assay: Mite/insect screen, sprayed squash cotyledons (SM); conditions: percent mortality; for mortality at 200 ppm / mortality at 400 ppm: Tetranychus urticae, read-out: SM RESULTS %
Summary of the method: as §1

[6] = tested on: southern armyworm (Spodopetra eridania Cramer); assay: Mite/insect screen, sprayed squash leaves (SAW); conditions: percent mortality; for mortality at 200 ppm / mortality at 400 ppm: Spodoptera eridania, read-out: SAW RESULTS %
Summary of the method: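 Percent mortality and phytotoxicity are the read-outs, assessed after standard exposure periods. Test solutions, made in 50:50 acetone/alcohol with two sulfonate/nonionic emulsifier blends and diluted in water, are sprayed to runoff on both leaf surfaces, which then dry for one hour.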

[7] = tested on: Pyricularia oryzae (rice blast); conditions: disease control rating, foliar spray, host rice; 400 ppm (+++ at 100 ppm)
[8] = tested on: Erysiphe graminis tritici (powdery mildew); assay: Greenhouse Test 1, foliar spray fungicide screen (POWD MDEW), host wheat; conditions: disease control rating, 400 ppm (+++ at 100 ppm)
[9] = tested on: Puccinia recondita tritici (leaf rust); assay: Greenhouse Test 1, foliar spray fungicide screen (LEAF RUST), host wheat; conditions: disease control rating, 400 ppm (+++ at 100 ppm)

SMILES	DOWN MDEW [1]	GRAY MOLD [4]	RICE BLAST [7]	POWD MDEW [8]	LEAF RUST [9]	mortality at 400 ppm ([2]; spray rate 400 ppm) [%]	mortality at 24 ppm ([3]; CRW rate 24.00 ppm) [%]	mortality at 400 ppm ([5]; spray rate 400 ppm) [%]	mortality at 400 ppm ([6]; spray rate 400 ppm) [%]	mortality at 200 ppm ([2]; spray rate 200 ppm) [%]	mortality at 12 ppm ([3]; CRW rate 12.00 ppm) [%]	mortality at 200 ppm ([5]; spray rate 200 ppm) [%]	mortality at 200 ppm ([6]; spray rate 200 ppm) [%]	also measured
CC(C)(C)c1ccc(CCCCOc2ncnc3c(F)cccc23)cc1 [Example 200, 8-fluoro-4-[4-[4-(t-butyl)phenyl]butoxy]quinazoline]	+++ (+++ = 90-100% control at 100 ppm)	- (- = 0-19% control at 400 ppm)	+++ (+++ = 90-100% control at 100 ppm)	+++ (+++ = 90-100% control at 100 ppm)	+ (+ = 20-89% control at 400 ppm)									mortality at 200 ppm ([2]; melon aphids, sprayed squash cotyledons, RATE 200 PPM): 60%; mortality at 400 ppm ([2]; melon aphids, sprayed squash cotyledons, RATE 400 PPM): 80%; mortality at 12 ppm ([3]; corn rootworm, CRW RATE 12.00 PPM): 100%; mortality at 24 ppm ([3]; corn rootworm, CRW RATE 24.00 PPM): 100%; mortality at 200 ppm ([5]; twospotted spider mites, sprayed squash cotyledons, RATE 200 PPM): 80%; mortality at 400 ppm ([5]; twospotted spider mites, sprayed squash cotyledons, RATE 400 PPM): 100%; mortality at 200 ppm ([6]; Southern armyworm, sprayed squash leaves, RATE 200 PPM): 0%; mortality at 400 ppm ([6]; Southern armyworm, sprayed squash leaves, RATE 400 PPM): 0%
COc1ccccc1CCOc1ncnc2c(F)cccc12 [Example 131, 8-fluoro-4-[2-(2-methoxyphenyl)ethoxy]quinazoline]	+++ (+++ = 90-100% control at 100 ppm)	- (- = 0-19% control at 400 ppm)	+++ (+++ = 90-100% control at 100 ppm)	+++ (+++ = 90-100% control at 100 ppm)	+++ (+++ = 90-100% control at 100 ppm)	0	0	0	0					
CC(C)(C)c1ccc(CCCc2ncnc3ccccc23)cc1 [Example 127, 4-[3-[4-(1,1-dimethylethyl)phenyl]propyl]quinazoline]	+++ (+++ = 90-100% control at 100 ppm)	- (- = 0-19% control at 400 ppm)	+++ (+++ = 90-100% control at 100 ppm)	+++ (+++ = 90-100% control at 100 ppm)	++ (++ = 90-100% control at 400 ppm)	100	0	100	0	100	0	100	0	
Oc1ccc(CCCOc2ncnc3ccccc23)cc1 [Example 121, 4-[3-(4-hydroxyphenyl)propoxy]quinazoline]	- (- = 0-19% control at 400 ppm)	- (- = 0-19% control at 400 ppm)	- (- = 0-19% control at 400 ppm)	- (- = 0-19% control at 400 ppm)	- (- = 0-19% control at 400 ppm)	0	0	0	0	0	0	0	0	
c1ccc(Oc2ccc(CCCOc3ncnc4ccccc34)cc2)cc1 [Example 151, 4-[3-(4-phenoxyphenyl)propoxy]quinazoline]	- (- = 0-19% control at 400 ppm)	- (- = 0-19% control at 400 ppm)	- (- = 0-19% control at 400 ppm)	+ (+ = 20-89% control at 400 ppm)	- (- = 0-19% control at 400 ppm)	0	0	0	0	80	0	0	0	
CC(C)c1ccc(CCCOc2ncnc3c(F)cccc23)cc1 [Example 152, 8-fluoro-4-[3-[4-(1-methylethyl)phenyl]propoxy]quinazoline]	+ (+ = 20-89% control at 400 ppm)	- (- = 0-19% control at 400 ppm)	+ (+ = 20-89% control at 400 ppm)	+++ (+++ = 90-100% control at 100 ppm)	+ (+ = 20-89% control at 400 ppm)	80	0	60	0	40	0	90	0	
FC(F)(F)c1cccc(Oc2ccc(CCOc3ncnc4ccccc34)cc2)c1 [Example 188, 4-[2-[4-[3-(trifluoromethyl)phenoxy]phenyl]ethoxy]quinazoline]	+++ (+++ = 90-100% control at 100 ppm)	- (- = 0-19% control at 400 ppm)	+++ (+++ = 90-100% control at 100 ppm)	+++ (+++ = 90-100% control at 100 ppm)	+++ (+++ = 90-100% control at 100 ppm)	80	100		80	100	0	100	0	
Cc1ccc(CCNc2ncnc3c(F)cccc23)cc1 [Example 77, 8-fluoro-N-[2-(4-methylphenyl)ethyl]-4-quinazolinamine]	- (- = 0-19% control at 400 ppm)	- (- = 0-19% control at 400 ppm)	++ (++ = 90-100% control at 400 ppm)	- (- = 0-19% control at 400 ppm)	++ (++ = 90-100% control at 400 ppm)	0	0	0	0	0	0	0	0	
Fc1cccc2c(NCCc3ccc(Oc4ccccc4)cc3)ncnc12 [Example 101, 8-fluoro-N-[2-(4-phenoxyphenyl)ethyl]-4-quinazolinamine]	+++ (+++ = 90-100% control at 100 ppm)	++ (++ = 90-100% control at 400 ppm)	+++ (+++ = 90-100% control at 100 ppm)	+ (+ = 20-89% control at 400 ppm)	- (- = 0-19% control at 400 ppm)	100	0	100	0	80	100	100	100	
Fc1cccc2c(NCC(c3ccccc3)c3ccccc3)ncnc12 [Example 61, N-(2,2-diphenylethyl)-8-fluoro-4-quinazolinamine]	- (- = 0-19% control at 400 ppm)	- (- = 0-19% control at 400 ppm)	- (- = 0-19% control at 400 ppm)	- (- = 0-19% control at 400 ppm)	- (- = 0-19% control at 400 ppm)	0	0	0	0	0	0	0	0	MA RESULTS % ([2]; spray rate 200 ppm): 0%; CRW RESULTS % ([3]; CRW rate 12.00 ppm): 0%; SM RESULTS % ([5]; spray rate 200 ppm): 0%; SAW RESULTS % ([6]; spray rate 200 ppm): 0%
Fc1ccccc1CCOc1ncnc2ccccc12 [Example 48, 4-[2-(2-fluorophenyl)ethoxy]quinazoline]	++ (++ = 90-100% control at 400 ppm)	- (- = 0-19% control at 400 ppm)	+ (+ = 20-89% control at 400 ppm)	+++ (+++ = 90-100% control at 100 ppm)	+++ (+++ = 90-100% control at 100 ppm)	100	0	90	0					
